Earlier results in patent US7833524B2 (priority 2005, dated 2010).

Molecular target: LC/A (Clostridium botulinum, UniProt P0DPI0)
Sequence (P0DPI0 2-448 limits assumed): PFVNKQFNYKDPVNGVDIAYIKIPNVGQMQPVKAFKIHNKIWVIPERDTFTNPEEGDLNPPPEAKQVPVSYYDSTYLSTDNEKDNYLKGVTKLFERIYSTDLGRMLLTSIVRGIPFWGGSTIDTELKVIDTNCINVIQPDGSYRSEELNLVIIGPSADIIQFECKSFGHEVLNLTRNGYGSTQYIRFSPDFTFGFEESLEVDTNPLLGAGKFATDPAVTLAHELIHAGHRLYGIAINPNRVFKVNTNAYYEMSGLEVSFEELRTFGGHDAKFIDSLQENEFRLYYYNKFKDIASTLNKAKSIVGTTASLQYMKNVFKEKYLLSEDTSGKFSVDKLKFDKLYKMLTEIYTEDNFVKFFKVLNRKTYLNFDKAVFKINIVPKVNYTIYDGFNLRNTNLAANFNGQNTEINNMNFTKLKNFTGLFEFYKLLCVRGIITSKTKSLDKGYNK

SMILES	Concentration range that inhibits LC/A
C[C@H](CS)C(=O)N1CCC[C@H]1C(=O)O [captopril]	mM concentrations
CCOC(=O)[C@H](CCc1ccccc1)N[C@@H](C)C(=O)N1CCC[C@H]1C(=O)O [enalapril]	mM concentrations
